Drawing on ChEMBL document CHEMBL5357061, “Enhanced Inhibition of Cancer Cell Migration by a Planar Catechin Analog” (ACS Med Chem Lett, 2024), this text covers inhibition for two compounds.

The test system of one assay is RGM1. Description: Inhibition of cell migration in rat RGM1 cells assessed as reduction in healing of scratched areas at 200 uM measured after 12 hrs by scratch-wound healing assay. The class given is functional, cell-based.
For a further assay, the system named is RGK1. Kind of assay: Inhibition of cell migration in rat RGK1 cells assessed as reduction in healing of scratched areas at 200 uM measured after 12 hrs by scratch-wound healing assay. The class given is functional, cell-based.

Active and inactive are the calls of the source. The rule behind the calls is not given here.

As for `CC1(C)O[C@H]2Cc3c(O)cc(O)cc3O[C@@H]2c2cc(O)c(O)cc21`, the inhibition result in the assay on RGM1 and in the assay with RGK1 was “Active” throughout.

For the compound `Oc1cc(O)c2c(c1)O[C@H](c1ccc(O)c(O)c1)[C@@H](O)C2`, the inhibition result with RGM1 and in the assay on RGK1 was “inactive” each time.
